According to patent US20250026759A1 (Merck Sharp & Dohme LLC, priority 2023, published 2025):

Each compound was assayed on PBMCs infected with VSV-G pseudotyped HIV virus (VSV-G/pNLG1-P2A-ΔEnv) (assay: cells). Settings: Homo sapiens, PBMC, read-out: TACK EC50.
Format: cell-based, human
Work on `O=C1Nc2cc(Cn3nccc3CO)c(F)cc2[C@@](C#CC2CC2)(C(F)(F)F)N1` (single isomer, unassigned) [Example 5] yielded an EC50 of 0.109 µM. With `O=C1Nc2cc(Cn3ccc(CO)n3)c(F)cc2[C@@](C#CC2CC2)(C(F)(F)F)N1` (single isomer, unassigned) [Example 6] the EC50 was 0.0171 µM. In the case of `O=C1Nc2cc(Cn3c(=O)[nH]c4cccnc43)c(F)cc2[C@@](C#CC2CC2)(C(F)(F)F)N1` (single isomer, unassigned) [Example 7], the EC50 is reported as 0.012 µM. For `O=C1Nc2cc(Cn3c(=O)[nH]c4ncccc43)c(F)cc2[C@@](C#CC2CC2)(C(F)(F)F)N1` (single isomer, unassigned) [Example 8], the EC50 was 0.0387 µM. Work on `O=C1Nc2cc(Cn3ncc4c3CCOC4)c(F)cc2[C@@](C#CC2CC2)(C(F)(F)F)N1` (single isomer, unassigned) [Example 22] yielded an EC50 of 0.0605 µM. `O=C1Nc2cc(Cn3cc4c(n3)CCOC4)c(F)cc2[C@@](C#CC2CC2)(C(F)(F)F)N1` (single isomer, unassigned) [Example 23] showed an EC50 of 0.0212 µM. For `O=C1Nc2cc(Cn3ncc4ccncc43)c(F)cc2[C@@](C#CC2CC2)(C(F)(F)F)N1` (single isomer, unassigned) [Example 25], the EC50 was 0.0599 µM. Work on `O=C1Nc2cc(Cn3cc4ccncc4n3)c(F)cc2[C@@](C#CC2CC2)(C(F)(F)F)N1` (single isomer, unassigned) [Example 26] yielded an EC50 of 0.0136 µM. For `CC(F)(F)[C@@]1(C#CC2CC2)NC(=O)Nc2cc(Cn3cncc3CO)c(F)cc21` (single isomer, unassigned) [Example 50], the EC50 was 0.0681 µM. In the case of `CC(F)(F)[C@@]1(C#CC2CC2)NC(=O)Nc2cc(Cn3cnc(CO)c3)c(F)cc21` (single isomer, unassigned) [Example 51], the EC50 is reported as 0.107 µM. For `CC(O)c1ccn(Cc2cc3c(cc2F)[C@@](C#CC2CC2)(C(C)(F)F)NC(=O)N3)n1` (single isomer, unassigned) [Example 72, (S)-4-(cyclopropylethynyl)-4-(1,1-difluoroethyl)-6-fluoro-7-((3-((S or R)-1-hydroxyethyl)-1H-pyrazol-1-yl)methyl)-3,4-dihydroquinazolin-2(1H)-one], the EC50 was 0.0462 µM. `CC(F)(F)[C@@]1(C#CC2CC2)NC(=O)Nc2cc(Cn3ncc(F)c3C(N)=O)c(F)cc21` (single isomer, unassigned) [Example 103] gave an EC50 of 0.0302 µM. For `CC(F)(F)[C@@]1(C#CC2CC2)NC(=O)Nc2cc(Cn3cc(F)c(C(N)=O)n3)c(F)cc21` (single isomer, unassigned) [Example 104], the EC50 was 0.0146 µM. With `CC(F)(F)[C@@]1(C#CC2CC2)NC(=O)Nc2cc(Cn3ncnc3N)c(F)cc21` (single isomer, unassigned) [Example 105] the EC50 was 0.0109 µM. With `Nc1ncn(Cc2cc3c(cc2F)[C@@](C#CC2CC2)(C(F)(F)F)NC(=O)N3)n1` (single isomer, unassigned) [Example 107] the EC50 was 0.0174 µM. `CC(F)(F)[C@@]1(C#CC2CC2)NC(=O)Nc2cc(Cn3cnc(C(N)=O)n3)c(F)cc21` (single isomer, unassigned) [Example 113] was tested, and the EC50 was 0.0512 µM. In the case of `CC(F)(F)[C@@]1(C#CC2CC2)NC(=O)Nc2cc(Cn3ncnc3C(N)=O)c(F)cc21` (single isomer, unassigned) [Example 114], the EC50 is reported as 0.0185 µM. Work on `NC(=O)c1ncnn1Cc1cc2c(cc1F)[C@@](C#CC1CC1)(C(F)(F)F)NC(=O)N2` (single isomer, unassigned) [Example 116] yielded an EC50 of 0.0318 µM. In the case of `NC(=O)c1ncn(Cc2cc3c(cc2F)[C@@](C#CC2CC2)(C(F)(F)F)NC(=O)N3)n1` (single isomer, unassigned) [Example 117], the EC50 is reported as 0.0316 µM. `CN1C(=O)NC(=O)C1Cc1cc2c(cc1F)[C@@](C#CC1CC1)(C(C)(F)F)NC(=O)N2` (single isomer, unassigned) [Example 124, (S or R)-5-(((S)-4-(cyclopropylethynyl)-4-(1,1-difluoroethyl)-6-fluoro-2-oxo-1,2,3,4-tetrahydroquinazolin-7-yl)methyl)-1-methylimidazolidine-2,4-dione] gave an EC50 of 0.0904 µM. With `COc1ncn(Cc2cc3c(cc2F)[C@@](C#CC2CC2)(C(C)(F)F)NC(=O)N3)n1` [Example 1, (S)-4-(cyclopropylethynyl)-4-(1,1-difluoroethyl)-6-fluoro-7-((3-methoxy-1H-1,2,4-triazol-1-yl)methyl)-3,4-dihydroquinazolin-2(1H)-one] the EC50 was 0.0146 µM. With `CC(F)(F)[C@@]1(C#CC2CC2)NC(=O)Nc2cc(Cn3ccc(CO)n3)c(F)cc21` [Example 2, (S)-4-(cyclopropylethynyl)-4-(1,1-difluoroethyl)-6-fluoro-7-((3-(hydroxymethyl)-1H-pyrazol-1-yl)methyl)-3,4-dihydroquinazolin-2(1H)-one] the EC50 was 0.0145 µM. For `COc1cnn(Cc2cc3c(cc2F)[C@@](C#CC2CC2)(C(C)(F)F)NC(=O)N3)c1` [Example 3, (S)-4-(cyclopropylethynyl)-4-(1,1-difluoroethyl)-6-fluoro-7-((4-methoxy-1H-pyrazol-1-yl)methyl)-3,4-dihydroquinazolin-2(1H)-one], the EC50 was 0.0144 µM. For `CC(F)(F)[C@@]1(C#CC2CC2)NC(=O)Nc2cc(Cn3cnc(CO)n3)c(F)cc21` [Example 4, (S)-4-(cyclopropylethynyl)-4-(1,1-difluoroethyl)-6-fluoro-7-((3-(hydroxymethyl)-1H-1,2,4-triazol-1-yl)methyl)-3,4-dihydroquinazolin-2(1H)-one], the EC50 was 0.0677 µM. Compound `CN1CC(=O)N(Cc2cc3c(cc2F)[C@@](C#CC2CC2)(C(F)(F)F)NC(=O)N3)C1=O` [Example 9, (S)-3-((4-(cyclopropylethynyl)-6-fluoro-2-oxo-4-(trifluoromethyl)-1,2,3,4-tetrahydroquinazolin-7-yl)methyl)-1-methylimidazolidine-2,4-dione] has an EC50 of 0.0746 µM. With `CC(F)(F)[C@@]1(C#CC2CC2)NC(=O)Nc2cc(Cn3cc(-c4ccncc4)cn3)c(F)cc21` [Example 10, (S)-4-(cyclopropylethynyl)-4-(1,1-difluoroethyl)-6-fluoro-7-((4-(pyridin-4-yl)-1H-pyrazol-1-yl)methyl)-3,4-dihydroquinazolin-2(1H)-one] the EC50 was 0.0372 µM. In the case of `Cc1cnn(Cc2cc3c(cc2F)[C@@](C#CC2CC2)(C(C)(F)F)NC(=O)N3)c1` [Example 11, (S)-4-(cyclopropylethynyl)-4-(1,1-difluoroethyl)-6-fluoro-7-((4-methyl-1H-pyrazol-1-yl)methyl)-3,4-dihydroquinazolin-2(1H)-one], the EC50 is reported as 0.0466 µM. Compound `CC(F)(F)[C@@]1(C#CC2CC2)NC(=O)Nc2cc(Cn3c(=O)[nH]c4ccccc43)c(F)cc21` [Example 12, (S)-4-(cyclopropylethynyl)-4-(1,1-difluoroethyl)-6-fluoro-7-((2-oxo-2,3-dihydro-1H-benzo[d]imidazol-1-yl)methyl)-3,4-dihydroquinazolin-2(1H)-one] has an EC50 of 0.0196 µM. With `O=C1Nc2cc(Cn3c(=O)oc4ccccc43)c(F)cc2[C@@](C#CC2CC2)(C(F)(F)F)N1` [Example 13, (S)-3-((4-(cyclopropylethynyl)-6-fluoro-2-oxo-4-(trifluoromethyl)-1,2,3,4-tetrahydroquinazolin-7-yl)methyl)benzo[d]oxazol-2(3H)-one] the EC50 was 0.0143 µM. In the case of `CC(F)(F)[C@@]1(C#CC2CC2)NC(=O)Nc2cc(CN3C(=O)CNC3=O)c(F)cc21` [Example 14, (S)-3-((4-(cyclopropylethynyl)-4-(1,1-difluoroethyl)-6-fluoro-2-oxo-1,2,3,4-tetrahydroquinazolin-7-yl)methyl)imidazolidine-2,4-dione], the EC50 is reported as 0.0248 µM. `CC(F)(F)[C@@]1(C#CC2CC2)NC(=O)Nc2cc(Cn3cc(F)cn3)c(F)cc21` [Example 15, (S)-4-(cyclopropylethynyl)-4-(1,1-difluoroethyl)-6-fluoro-7-((4-fluoro-1H-pyrazol-1-yl)methyl)-3,4-dihydroquinazolin-2(1H)-one] gave an EC50 of 0.0273 µM. Work on `CC(F)(F)[C@@]1(C#CC2CC2)NC(=O)Nc2cc(Cn3cc(Cl)cn3)c(F)cc21` [Example 16, (S)-7-((4-chloro-1H-pyrazol-1-yl)methyl)-4-(cyclopropylethynyl)-4-(1,1-difluoroethyl)-6-fluoro-3,4-dihydroquinazolin-2(1H)-one] yielded an EC50 of 0.0324 µM. Compound `CC(F)(F)[C@@]1(C#CC2CC2)NC(=O)Nc2cc(Cn3ccc(C#N)n3)c(F)cc21` [Example 17, (S)-1-((4-(cyclopropylethynyl)-4-(1,1-difluoroethyl)-6-fluoro-2-oxo-1,2,3,4-tetrahydroquinazolin-7-yl)methyl)-1H-pyrazole-3-carbonitrile] has an EC50 of 0.0463 µM.

Same assay, conditions: read-out: TACK EC50
With `COC(C)c1ccn(Cc2cc3c(cc2F)[C@@](C#CC2CC2)(C(C)(F)F)NC(=O)N3)n1` (single isomer, unassigned) [Example 58, (S)-4-(cyclopropylethynyl)-4-(1,1-difluoroethyl)-6-fluoro-7-((3-((R or S)-1-methoxyethyl)-1H-pyrazol-1-yl)methyl)-3,4-dihydroquinazolin-2(1H)-one] the EC50 was 0.025 µM. `COC(C)c1ccn(Cc2cc3c(cc2F)[C@@](C#CC2CC2)(C(C)(F)F)NC(=O)N3)n1` (single isomer, unassigned) [Example 59, (S)-4-(cyclopropylethynyl)-4-(1,1-difluoroethyl)-6-fluoro-7-((3-((S or R)-1-methoxyethyl)-1H-pyrazol-1-yl)methyl)-3,4-dihydroquinazolin-2(1H)-one] showed an EC50 of 0.0556 µM. For `CC(O)c1ccn(Cc2cc3c(cc2F)[C@@](C#CC2CC2)(C(C)(F)F)NC(=O)N3)n1` (single isomer, unassigned) [Example 73, (S)-4-(cyclopropylethynyl)-4-(1,1-difluoroethyl)-6-fluoro-7-((3-((R or S)-1-hydroxyethyl)-1H-pyrazol-1-yl)methyl)-3,4-dihydroquinazolin-2(1H)-one], the EC50 was 0.0245 µM. Work on `CN1C(=O)NC(=O)C1Cc1cc2c(cc1F)[C@@](C#CC1CC1)(C(C)(F)F)NC(=O)N2` (single isomer, unassigned) [Example 125, (R or S)-5-(((S)-4-(cyclopropylethynyl)-4-(1,1-difluoroethyl)-6-fluoro-2-oxo-1,2,3,4-tetrahydroquinazolin-7-yl)methyl)-1-methylimidazolidine-2,4-dione] yielded an EC50 of 0.111 µM.
